From patent US20140275281A1, “Geranylgeranyl acetone and derivatives thereof for intranasal administration” (COYOTE PHARMACEUTICALS, INC., priority 2013, published 2014)

Experiment: pharmacological activity of GGA isomers (test not described)
Conditions: at low concentrations; statement in words only, no data given

Structure (SMILES) | pharmacological activity
CC(=O)CC/C=C(\C)CC/C=C(\C)CC/C=C(\C)CCC=C(C)C (single isomer, unassigned) [trans-isomer of GGA, trans-GGA] | pharmacologically active
CC(=O)CC/C=C(/C)CC/C=C(\C)CC/C=C(\C)CCC=C(C)C (single isomer, unassigned) [cis-isomer of GGA, 5Z, 9E, 13E geranylgeranyl acetone] | at best of minimal activity
